Measured values as given in US9012655B2, “Antimicrobial/adjuvant compounds and methods” (Denouamed, Inc., priority 2011, dated 2015).
In brackets after ≈: the same amount, converted by molar mass. Each block holds one molecule with its values, some of them ahead of it.

Columns and labels:
Assay in all cases: MIC panel of challenge pathogens (CLSI)
Type in all cases: cell-based
[1] = tested on: Staphylococcus aureus AUR60 7005; settings: AUR607005, Staphylococcus aureus AUR60 7005; for MIC: read-out: 100% inhibition; for MIC50: read-out: MIC50 (50%); for MIC80: read-out: MIC80 (80%)
In short: (§1)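 Broth microdilution per CLSI guidelines. Final inoculum 2-8×10^5 CFU/ml, compounds serially two-fold diluted from 128 mg/L top concentration. Incubated in the dark at 30-37° C for 24-48 h, aerobic or anaerobic as appropriate. MIC read visually as 100% inhibition endpoint; MIC50 and MIC80 also reported.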

[2] = tested on: Staphylococcus aureus NRS384; settings: Staphylococcus aureus NRS384; for MIC: read-out: 100% inhibition; for MIC50: read-out: MIC50 (50%); for MIC80: read-out: MIC80 (80%)
In short: as §1

[3] = tested on: Staphylococcus aureus AUR59 7005; settings: AUR597005, Staphylococcus aureus AUR59 7005; for MIC: read-out: 100% inhibition; for MIC50: read-out: MIC50 (50%); for MIC80: read-out: MIC80 (80%)
In short: as §1

[4] = tested on: Staphylococcus aureus ATCC43300; settings: Staphylococcus aureus ATCC43300; for MIC: read-out: 100% inhibition; for MIC50: read-out: MIC50 (50%); for MIC80: read-out: MIC80 (80%)
In short: as §1

[5] = tested on: Staphylococcus epidermidis NRS7; settings: Staphylococcus epidermidis NRS7; for MIC: read-out: 100% inhibition; for MIC50: read-out: MIC50 (50%); for MIC80: read-out: MIC80 (80%)
In short: as §1

[6] = tested on: Bacillus cereus NCTC6349; settings: Bacillus cereus NCTC6349; for MIC: read-out: 100% inhibition; for MIC50: read-out: MIC50 (50%); for MIC80: read-out: MIC80 (80%)
In short: as §1

[7] = tested on: Staphylococcus aureus EUP SAU040; settings: EUPSAU040, Staphylococcus aureus EUP SAU040; for MIC: read-out: 100% inhibition; for MIC50: read-out: MIC50 (50%); for MIC80: read-out: MIC80 (80%)
In short: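 Broth microdilution per CLSI guidelines; final inoculum 2-8×10^5 CFU/ml in the appropriate broth. Compounds serially diluted two-fold from a top assay concentration of 128 mg/L. Plates incubated in the dark at 30-37° C for 24-48 hours, read visually; MIC taken as 100% inhibition endpoint.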

[8] = tested on: Staphylococcus aureus AUR131 007035; settings: AUR131007035, Staphylococcus aureus AUR131 007035; for MIC: read-out: 100% inhibition; for MIC50: read-out: MIC50 (50%); for MIC80: read-out: MIC80 (80%)
In short: as §1

[9] = tested on: Enterococcus faecalis ATCC29212; settings: Enterococcus faecalis ATCC29212; for MIC: read-out: 100% inhibition; for MIC50: read-out: MIC50 (50%); for MIC80: read-out: MIC80 (80%)
In short: as §1

[10] = tested on: Enterococcus faecalis ATCC51299; settings: Enterococcus faecalis ATCC51299; for MIC: read-out: 100% inhibition; for MIC50: read-out: MIC50 (50%); for MIC80: read-out: MIC80 (80%)
In short: as §1

[11] = tested on: Staphylococcus aureus NRS382; settings: Staphylococcus aureus NRS382; for MIC: read-out: 100% inhibition; for MIC50: read-out: MIC50 (50%); for MIC80: read-out: MIC80 (80%)
In short: as §1

[12] = tested on: Staphylococcus aureus EUP MRSA002; settings: EUPMRSA002, Staphylococcus aureus EUP MRSA002; for MIC: read-out: 100% inhibition; for MIC50: read-out: MIC50 (50%); for MIC80: read-out: MIC80 (80%)
In short: as §1

[13] = tested on: Enterococcus faecium ATCC700221; settings: Enterococcus faecium ATCC700221; for MIC: read-out: 100% inhibition; for MIC50: read-out: MIC50 (50%); for MIC80: read-out: MIC80 (80%)
In short: as §1

[14] = tested on: Staphylococcus aureus NRS2 (ATCC700698); settings: Staphylococcus aureus NRS2 (ATCC700698); for MIC: read-out: 100% inhibition; for MIC50: read-out: MIC50 (50%); for MIC80: read-out: MIC80 (80%)
In short: as §1

[15] = tested on: Staphylococcus epidermidis NRS122; settings: Staphylococcus epidermidis NRS122; for MIC: read-out: 100% inhibition; for MIC50: read-out: MIC50 (50%); for MIC80: read-out: MIC80 (80%)
In short: as §1

[16] = tested on: Staphylococcus aureus NRS383; settings: Staphylococcus aureus NRS383; for MIC: read-out: 100% inhibition; for MIC50: read-out: MIC50 (50%); for MIC80: read-out: MIC80 (80%)
In short: as §1

[17] = tested on: Staphylococcus aureus AUR58 7005; settings: AUR587005, Staphylococcus aureus AUR58 7005; for MIC: read-out: 100% inhibition; for MIC50: read-out: MIC50 (50%); for MIC80: read-out: MIC80 (80%)
In short: as §1

[18] = tested on: Staphylococcus aureus NRS1 (ATCC700699); settings: Staphylococcus aureus NRS1 (ATCC700699); for MIC: read-out: 100% inhibition; for MIC50: read-out: MIC50 (50%); for MIC80: read-out: MIC80 (80%)
In short: as §1

[19] = tested on: Staphylococcus aureus EUP MRSA004; settings: EUPMRSA004, Staphylococcus aureus EUP MRSA004; for MIC: read-out: 100% inhibition; for MIC50: read-out: MIC50 (50%); for MIC80: read-out: MIC80 (80%)
In short: as §1

SMILES: Cc1cc(Cl)ccc1-c1cc(-c2nnn[nH]2)sc1-c1ccc(C)c2ccccc12 [DNM0576, 5-(4-(4-Chloro-2-methylphenyl)-5-(4-methylnaphthalen-1-yl)thiophen-2-yl)-1H-tetrazole]
MIC [1]: 0.5 µg/mL (≈ 1.2 µM)
MIC50 [1]: 0.5 µg/mL (≈ 1.2 µM)
MIC80 [1]: 0.5 µg/mL (≈ 1.2 µM)
MIC [2]: 0.5 µg/mL (≈ 1.2 µM)
MIC50 [2]: 0.5 µg/mL (≈ 1.2 µM)
MIC80 [2]: 0.5 µg/mL (≈ 1.2 µM)
MIC [3]: 0.5 µg/mL (≈ 1.2 µM)
MIC50 [3]: 0.5 µg/mL (≈ 1.2 µM)
MIC80 [3]: 0.5 µg/mL (≈ 1.2 µM)
MIC [4]: 0.5 µg/mL (≈ 1.2 µM)
MIC50 [4]: 0.5 µg/mL (≈ 1.2 µM)
MIC80 [4]: 0.5 µg/mL (≈ 1.2 µM)
MIC [5]: 0.5 µg/mL (≈ 1.2 µM)
MIC50 [5]: 0.25 µg/mL (≈ 0.6 µM)
MIC80 [5]: 0.5 µg/mL (≈ 1.2 µM)
MIC [6]: 0.5 µg/mL (≈ 1.2 µM)
MIC50 [6]: ≤ 0.25 µg/mL
MIC80 [6]: ≤ 0.25 µg/mL
MIC [7]: ≤ 0.25 µg/mL
MIC50 [7]: ≤ 0.25 µg/mL
MIC80 [7]: ≤ 0.25 µg/mL
MIC [8]: 0.5 µg/mL (≈ 1.2 µM)
MIC50 [8]: 0.5 µg/mL (≈ 1.2 µM)
MIC80 [8]: 0.5 µg/mL (≈ 1.2 µM)
MIC [9]: 1 µg/mL (≈ 2.4 µM)
MIC50 [9]: 1 µg/mL (≈ 2.4 µM)
MIC80 [9]: 1 µg/mL (≈ 2.4 µM)
MIC [10]: 1 µg/mL (≈ 2.4 µM)
MIC50 [10]: 1 µg/mL (≈ 2.4 µM)
MIC80 [10]: 1 µg/mL (≈ 2.4 µM)
MIC [11]: 0.5 µg/mL (≈ 1.2 µM)
MIC50 [11]: 0.5 µg/mL (≈ 1.2 µM)
MIC80 [11]: 0.5 µg/mL (≈ 1.2 µM)
MIC [12]: ≤ 0.25 µg/mL
MIC50 [12]: ≤ 0.25 µg/mL
MIC80 [12]: ≤ 0.25 µg/mL
MIC [13]: 0.5 µg/mL (≈ 1.2 µM)
MIC50 [13]: 0.25 µg/mL (≈ 0.6 µM)
MIC80 [13]: 0.25 µg/mL (≈ 0.6 µM)
MIC [14]: 0.5 µg/mL (≈ 1.2 µM)
MIC50 [14]: 0.5 µg/mL (≈ 1.2 µM)
MIC80 [14]: 0.5 µg/mL (≈ 1.2 µM)
MIC [15]: 2 µg/mL (≈ 4.8 µM)
MIC50 [15]: 2 µg/mL (≈ 4.8 µM)
MIC80 [15]: 2 µg/mL (≈ 4.8 µM)
MIC [16]: 0.5 µg/mL (≈ 1.2 µM)
MIC50 [16]: 0.5 µg/mL (≈ 1.2 µM)
MIC80 [16]: 0.5 µg/mL (≈ 1.2 µM)
MIC [17]: 0.5 µg/mL (≈ 1.2 µM)
MIC50 [17]: 0.5 µg/mL (≈ 1.2 µM)
MIC80 [17]: 0.5 µg/mL (≈ 1.2 µM)
MIC [18]: 0.5 µg/mL (≈ 1.2 µM)
MIC50 [18]: 0.25 µg/mL (≈ 0.6 µM)
MIC80 [18]: 0.5 µg/mL (≈ 1.2 µM)
MIC [19]: ≤ 0.25 µg/mL
MIC50 [19]: ≤ 0.25 µg/mL
MIC80 [19]: ≤ 0.25 µg/mL

MIC [1]: 0.5 µg/mL (≈ 1.22 µM)
MIC50 [1]: 0.5 µg/mL (≈ 1.22 µM)
MIC80 [1]: 0.5 µg/mL (≈ 1.22 µM)
MIC [2]: ≤ 0.25 µg/mL
MIC50 [2]: ≤ 0.25 µg/mL
MIC80 [2]: ≤ 0.25 µg/mL
MIC [3]: 0.5 µg/mL (≈ 1.22 µM)
MIC50 [3]: 0.5 µg/mL (≈ 1.22 µM)
MIC80 [3]: 0.5 µg/mL (≈ 1.22 µM)
MIC [4]: ≤ 0.25 µg/mL
MIC50 [4]: ≤ 0.25 µg/mL
MIC80 [4]: ≤ 0.25 µg/mL
MIC [5]: 1 µg/mL (≈ 2.45 µM)
MIC50 [5]: 0.5 µg/mL (≈ 1.22 µM)
MIC80 [5]: 0.5 µg/mL (≈ 1.22 µM)
MIC [6]: 0.5 µg/mL (≈ 1.22 µM)
MIC50 [6]: 0.5 µg/mL (≈ 1.22 µM)
MIC80 [6]: 0.5 µg/mL (≈ 1.22 µM)
MIC [7]: ≤ 0.25 µg/mL
MIC50 [7]: ≤ 0.25 µg/mL
MIC80 [7]: ≤ 0.25 µg/mL
MIC [8]: 0.5 µg/mL (≈ 1.22 µM)
MIC50 [8]: 0.5 µg/mL (≈ 1.22 µM)
MIC80 [8]: 0.5 µg/mL (≈ 1.22 µM)
MIC [9]: 1 µg/mL (≈ 2.45 µM)
MIC50 [9]: 1 µg/mL (≈ 2.45 µM)
MIC80 [9]: 1 µg/mL (≈ 2.45 µM)
MIC [10]: 1 µg/mL (≈ 2.45 µM)
MIC50 [10]: 1 µg/mL (≈ 2.45 µM)
MIC80 [10]: 1 µg/mL (≈ 2.45 µM)
MIC [11]: 0.5 µg/mL (≈ 1.22 µM)
MIC50 [11]: 0.5 µg/mL (≈ 1.22 µM)
MIC80 [11]: 0.5 µg/mL (≈ 1.22 µM)
MIC [12]: 0.5 µg/mL (≈ 1.22 µM)
MIC50 [12]: 0.5 µg/mL (≈ 1.22 µM)
MIC80 [12]: 0.5 µg/mL (≈ 1.22 µM)
MIC [13]: 1 µg/mL (≈ 2.45 µM)
MIC50 [13]: 1 µg/mL (≈ 2.45 µM)
MIC80 [13]: 1 µg/mL (≈ 2.45 µM)
MIC [14]: 0.5 µg/mL (≈ 1.22 µM)
MIC50 [14]: 0.5 µg/mL (≈ 1.22 µM)
MIC80 [14]: 0.5 µg/mL (≈ 1.22 µM)
MIC [15]: 4 µg/mL (≈ 9.78 µM)
MIC50 [15]: 2 µg/mL (≈ 4.89 µM)
MIC80 [15]: 4 µg/mL (≈ 9.78 µM)
MIC [16]: ≤ 0.25 µg/mL
MIC50 [16]: ≤ 0.25 µg/mL
MIC80 [16]: ≤ 0.25 µg/mL
MIC [17]: 1 µg/mL (≈ 2.45 µM)
MIC50 [17]: 0.5 µg/mL (≈ 1.22 µM)
MIC80 [17]: 1 µg/mL (≈ 2.45 µM)
MIC [18]: 0.5 µg/mL (≈ 1.22 µM)
MIC50 [18]: 0.5 µg/mL (≈ 1.22 µM)
MIC80 [18]: 0.5 µg/mL (≈ 1.22 µM)
MIC [19]: ≤ 0.25 µg/mL
MIC50 [19]: ≤ 0.25 µg/mL
MIC80 [19]: ≤ 0.25 µg/mL
SMILES: CCCCc1cccc(-c2cc(-c3nnn[nH]3)sc2Cc2ccc(Cl)cc2)c1 [DNM0606, 5-(4-(3-Butylphenyl)-5-(4-chlorobenzyl)thiophen-2-yl)-1H-tetrazole]
